Assay results reported in article PMC9354082, “5-HT3 Receptor MX Helix Contributes to Receptor Function” (ACS Chemical Neuroscience, 2022).
Substitutions are numbered along the chain they refer to.

Legend:
Test in all cases: Radioligand binding, transfected HEK293 cell membranes
Conditions in all cases: HEK cell membranes, n=4
WT 5-HT3 receptor = target: T1, WT 5-HT3 receptor (Mus musculus, UniProt P23979)
T1 construct: expressed in transfected cells; host or cells: HEK293 cells (membranes)
T1 sequence (P23979 24-489): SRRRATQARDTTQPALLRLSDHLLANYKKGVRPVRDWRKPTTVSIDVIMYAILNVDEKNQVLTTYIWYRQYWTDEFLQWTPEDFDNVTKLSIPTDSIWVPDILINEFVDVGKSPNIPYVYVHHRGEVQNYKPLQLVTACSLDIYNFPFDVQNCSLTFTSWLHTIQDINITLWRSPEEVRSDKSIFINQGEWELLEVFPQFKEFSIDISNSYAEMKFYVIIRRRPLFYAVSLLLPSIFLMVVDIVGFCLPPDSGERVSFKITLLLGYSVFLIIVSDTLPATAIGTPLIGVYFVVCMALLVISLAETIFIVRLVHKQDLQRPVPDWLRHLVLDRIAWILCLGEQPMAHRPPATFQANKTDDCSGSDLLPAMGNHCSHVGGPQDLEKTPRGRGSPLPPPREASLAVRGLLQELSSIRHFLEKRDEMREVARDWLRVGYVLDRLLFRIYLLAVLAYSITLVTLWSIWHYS
Experimental: (§1) One method to explore this is to perform radiolabeled ligand binding to examine the parameters associated with the binding site.
(§2) This was undertaken as previously described.[23] Briefly, transfected HEK293 cell membranes were incubated in 0.5 ml of HEPES buffer containing the 5-HT3 receptor antagonist [^3H]GR65630 to label cell surface receptors. Nonspecific binding was determined using 1 μM quipazine. Data were analyzed by iterative curve fitting using Prism. Values are presented as mean ± SEM.

[1] = target: T2, H323A mutant 5-HT3 receptor (Mus musculus, UniProt P23979, H350A)
T2 construct: expressed in transfected cells; host or cells: HEK293 cells (membranes)
T2 sequence (P23979 24-489 H350A): T1 sequence (P23979 24-489) with H327A
Experimental: as §1, §2

[2] = target: T3, P318A mutant 5-HT3 receptor (Mus musculus, UniProt P23979, P345A)
T3 construct: expressed in transfected cells; host or cells: HEK293 cells (membranes)
T3 sequence (P23979 24-489 P345A): T1 sequence (P23979 24-489) with P322A
Experimental: as §1, §2

Compound: Cc1[nH]cnc1CCC(=O)c1cn(C)c2ccccc12 [[^3H]GR65630]
- Bmax (WT 5-HT3 receptor): 1.1 ± 0.4 pmol/mg protein
- Kd (WT 5-HT3 receptor): 0.25 ± 0.1 nM
- Bmax [1]: 1.0 ± 0.1 pmol/mg protein
- Bmax [2]: 0.9 ± 0.2 pmol/mg protein
